Measurements reported in patent US12318373B2, “Methods of treating gastrointestinal stromal tumors” (Deciphera Pharmaceuticals, LLC, priority 2019, dated 2025).

Tested on: GIST patients
Assay: Example 3: safety, TEAEs in GIST patients at ≥100 mg daily
Type: in vivo, human
Method: Grade 3 or 4 treatment-emergent adverse events (TEAEs) in >5% of patients were lipase increased (18%; n=33), anemia (11%; n=20), hypertension (7%; n=13) and abdominal pain (6%; n=11). 13% of patients (n=24) experienced TEAEs leading to study treatment discontinuation, 17% of patients (n=31) experienced TEAEs leading to dose reduction and 49% of patients (n=88) had TEAEs leading to study drug interruption. Table 3 lists TEAEs>10% for GIST patients treated with ≥100 mg of ripretinib daily.

[1] = 1st column pair, head not printed (likely Grade 1/2)
[2] = 3rd column pair, head not printed (likely all grades)

Q: Which results are given for `CCn1c(=O)c(-c2cc(NC(=O)Nc3ccccc3)c(F)cc2Br)cc2cnc(NC)cc21` [ripretinib]?
A: Patients with TEAEs leading to dose reduction, %: 17%; Patients with TEAEs leading to dose reduction, number: 31; Patients with TEAEs leading to study drug interruption, %: 49%; Patients with TEAEs leading to study drug interruption, number: 88; Patients with TEAEs leading to study treatment discontinuation, %: 13%; Patients with TEAEs leading to study treatment discontinuation, number: 24; Abdominal pain: patients, % [1]: (18%); Abdominal pain: patients, number [1]: 33; Actinic keratosis: patients, % [1]: (14%); Actinic keratosis: patients, number [1]: 25; Alopecia: patients, % [1]: (57%); Alopecia: patients, number [1]: 102; Amylase increased: patients, % [1]: (11%); Amylase increased: patients, number [1]: 19; Anemia: patients, % [1]: (10%); Anemia: patients, number [1]: 18; Arthralgia: patients, % [1]: (22%); Arthralgia: patients, number [1]: 40; Back Pain: patients, % [1]: (17%); Back Pain: patients, number [1]: 30; Blood bilirubin increase: patients, % [1]: (9%); Blood bilirubin increase: patients, number [1]: 16; Blood creatine phosphokinase increased: patients, % [1]: (7%); Blood creatine phosphokinase increased: patients, number [1]: 13; Constipation: patients, % [1]: (37%); Constipation: patients, number [1]: 67; Cough: patients, % [1]: (21%); Cough: patients, number [1]: 37; Decreased appetite: patients, % [1]: (34%); Decreased appetite: patients, number [1]: 60; Diarrhea: patients, % [1]: (28%); Diarrhea: patients, number [1]: 50; Dizziness: patients, % [1]: (16%); Dizziness: patients, number [1]: 29; Dry skin: patients, % [1]: (21%); Dry skin: patients, number [1]: 37; Dysgeusia: patients, % [1]: (11%); Dysgeusia: patients, number [1]: 20; Dyspnea: patients, % [1]: (18%); Dyspnea: patients, number [1]: 32; Fatigue: patients, % [1]: (53%); Fatigue: patients, number [1]: 94; Headache: patients, % [1]: (18%); Headache: patients, number [1]: 33; Hypertension: patients, % [1]: (14%); Hypertension: patients, number [1]: 25; Hypokalaemia: patients, % [1]: (12%); Hypokalaemia: patients, number [1]: 21; Hypomagnesaemia: patients, % [1]: (10%); Hypomagnesaemia: patients, number [1]: 18; Hypophosphataemia: patients, % [1]: (10%); Hypophosphataemia: patients, number [1]: 17; Insomnia: patients, % [1]: (12%); Insomnia: patients, number [1]: 21; Lipase increased: patients, % [1]: (10%); Lipase increased: patients, number [1]: 18; Muscle spasms: patients, % [1]: (26%); Muscle spasms: patients, number [1]: 47; Myalgia: patients, % [1]: (44%); Myalgia: patients, number [1]: 79; Nausea: patients, % [1]: (43%); Nausea: patients, number [1]: 77; Pain in extremity: patients, % [1]: (10%); Pain in extremity: patients, number [1]: 18; Palmar-plantar erythrodysaesthesia syndrome: patients, % [1]: (40%); Palmar-plantar erythrodysaesthesia syndrome: patients, number [1]: 71; Pruritus: patients, % [1]: (10%); Pruritus: patients, number [1]: 18; Rash maculo-papular: patients, % [1]: (10%); Rash maculo-papular: patients, number [1]: 18; Rash: patients, % [1]: (15%); Rash: patients, number [1]: 27; Seborrhoeic keratosis: patients, % [1]: (12%); Seborrhoeic keratosis: patients, number [1]: 21; Skin papilloma: patients, % [1]: (10%); Skin papilloma: patients, number [1]: 17; Upper respiratory tract infection: patients, % [1]: (10%); Upper respiratory tract infection: patients, number [1]: 18; Urinary tract infection: patients, % [1]: (9%); Urinary tract infection: patients, number [1]: 16; Vision blurred: patients, % [1]: (10%); Vision blurred: patients, number [1]: 17; Vomiting: patients, % [1]: (24%); Vomiting: patients, number [1]: 42; Weight decreased: patients, % [1]: (29%); Weight decreased: patients, number [1]: 51; Abdominal pain: patients, % [2]: (25%); Abdominal pain: patients, number [2]: 44; Actinic keratosis: patients, % [2]: (14%); Actinic keratosis: patients, number [2]: 25; Alopecia: patients, % [2]: (57%); Alopecia: patients, number [2]: 102; Amylase increased: patients, % [2]: (12%); Amylase increased: patients, number [2]: 21; Anemia: patients, % [2]: (21%); Anemia: patients, number [2]: 38; Arthralgia: patients, % [2]: (22%); Arthralgia: patients, number [2]: 40; Back Pain: patients, % [2]: (18%); Back Pain: patients, number [2]: 32; Blood bilirubin increase: patients, % [2]: (12%); Blood bilirubin increase: patients, number [2]: 21; Blood creatine phosphokinase increased: patients, % [2]: (10%); Blood creatine phosphokinase increased: patients, number [2]: 18; Constipation: patients, % [2]: (37%); Constipation: patients, number [2]: 67; Cough: patients, % [2]: (21%); Cough: patients, number [2]: 37; Decreased appetite: patients, % [2]: (35%); Decreased appetite: patients, number [2]: 62; Diarrhea: patients, % [2]: (30%); Diarrhea: patients, number [2]: 53; Dizziness: patients, % [2]: (16%); Dizziness: patients, number [2]: 29; Dry skin: patients, % [2]: (21%); Dry skin: patients, number [2]: 37; Dysgeusia: patients, % [2]: (11%); Dysgeusia: patients, number [2]: 20; Dyspnea: patients, % [2]: (20%); Dyspnea: patients, number [2]: 36; Fatigue: patients, % [2]: (55%); Fatigue: patients, number [2]: 98; Headache: patients, % [2]: (19%); Headache: patients, number [2]: 34; Hypertension: patients, % [2]: (21%); Hypertension: patients, number [2]: 38; Hypokalaemia: patients, % [2]: (15%); Hypokalaemia: patients, number [2]: 26; Hypomagnesaemia: patients, % [2]: (10%); Hypomagnesaemia: patients, number [2]: 18; Hypophosphataemia: patients, % [2]: (14%); Hypophosphataemia: patients, number [2]: 25; Insomnia: patients, % [2]: (12%); Insomnia: patients, number [2]: 21; Lipase increased: patients, % [2]: (29%); Lipase increased: patients, number [2]: 51; Muscle spasms: patients, % [2]: (26%); Muscle spasms: patients, number [2]: 47; Myalgia: patients, % [2]: (44%); Myalgia: patients, number [2]: 79; Nausea: patients, % [2]: (44%); Nausea: patients, number [2]: 78; Pain in extremity: patients, % [2]: (11%); Pain in extremity: patients, number [2]: 19; Palmar-plantar erythrodysaesthesia syndrome: patients, % [2]: (40%); Palmar-plantar erythrodysaesthesia syndrome: patients, number [2]: 72; Pruritus: patients, % [2]: (10%); Pruritus: patients, number [2]: 18; Rash maculo-papular: patients, % [2]: (10%); Rash maculo-papular: patients, number [2]: 18; Rash: patients, % [2]: (15%); Rash: patients, number [2]: 27; Seborrhoeic keratosis: patients, % [2]: (12%); Seborrhoeic keratosis: patients, number [2]: 21; Skin papilloma: patients, % [2]: (10%); Skin papilloma: patients, number [2]: 17; Upper respiratory tract infection: patients, % [2]: (10%); Upper respiratory tract infection: patients, number [2]: 18; Urinary tract infection: patients, % [2]: (11%); Urinary tract infection: patients, number [2]: 20; Vision blurred: patients, % [2]: (10%); Vision blurred: patients, number [2]: 17; Vomiting: patients, % [2]: (25%); Vomiting: patients, number [2]: 44; Weight decreased: patients, % [2]: (29%); Weight decreased: patients, number [2]: 52; Tolerability (GIST patients): generally well tolerated; Abdominal pain: patients, number (head not printed (Grade 3/4)): 11; Actinic keratosis: patients, % (head not printed (Grade 3/4)): (0%); Actinic keratosis: patients, number (head not printed (Grade 3/4)): 0; Alopecia: patients, % (head not printed (Grade 3/4)): (0%); Alopecia: patients, number (head not printed (Grade 3/4)): 0; Amylase increased: patients, % (head not printed (Grade 3/4)): (1%); Amylase increased: patients, number (head not printed (Grade 3/4)): 2; Anemia: patients, number (head not printed (Grade 3/4)): 20; Arthralgia: patients, % (head not printed (Grade 3/4)): (0%); Arthralgia: patients, number (head not printed (Grade 3/4)): 0; Back Pain: patients, % (head not printed (Grade 3/4)): (1%); Back Pain: patients, number (head not printed (Grade 3/4)): 2; Blood bilirubin increase: patients, % (head not printed (Grade 3/4)): (3%); Blood bilirubin increase: patients, number (head not printed (Grade 3/4)): 5; Blood creatine phosphokinase increased: patients, % (head not printed (Grade 3/4)): (3%); Blood creatine phosphokinase increased: patients, number (head not printed (Grade 3/4)): 5; Constipation: patients, % (head not printed (Grade 3/4)): (0%); Constipation: patients, number (head not printed (Grade 3/4)): 0; Cough: patients, % (head not printed (Grade 3/4)): (0%); Cough: patients, number (head not printed (Grade 3/4)): 0; Decreased appetite: patients, % (head not printed (Grade 3/4)): (1%); Decreased appetite: patients, number (head not printed (Grade 3/4)): 2; Diarrhea: patients, % (head not printed (Grade 3/4)): (2%); Diarrhea: patients, number (head not printed (Grade 3/4)): 3; Dizziness: patients, % (head not printed (Grade 3/4)): (0%); Dizziness: patients, number (head not printed (Grade 3/4)): 0; Dry skin: patients, % (head not printed (Grade 3/4)): (0%); Dry skin: patients, number (head not printed (Grade 3/4)): 0; Dysgeusia: patients, % (head not printed (Grade 3/4)): (0%); Dysgeusia: patients, number (head not printed (Grade 3/4)): 0; Dyspnea: patients, % (head not printed (Grade 3/4)): (2%); Dyspnea: patients, number (head not printed (Grade 3/4)): 4; Fatigue: patients, % (head not printed (Grade 3/4)): (2%); Fatigue: patients, number (head not printed (Grade 3/4)): 4; Headache: patients, % (head not printed (Grade 3/4)): (1%); Headache: patients, number (head not printed (Grade 3/4)): 1; Hypertension: patients, number (head not printed (Grade 3/4)): 13; Hypokalaemia: patients, % (head not printed (Grade 3/4)): (3%); Hypokalaemia: patients, number (head not printed (Grade 3/4)): 5; Hypomagnesaemia: patients, % (head not printed (Grade 3/4)): (0%); Hypomagnesaemia: patients, number (head not printed (Grade 3/4)): 0; Hypophosphataemia: patients, % (head not printed (Grade 3/4)): (5%); Hypophosphataemia: patients, number (head not printed (Grade 3/4)): 8; Insomnia: patients, % (head not printed (Grade 3/4)): (0%); Insomnia: patients, number (head not printed (Grade 3/4)): 0; Lipase increased: patients, number (head not printed (Grade 3/4)): 33; Muscle spasms: patients, % (head not printed (Grade 3/4)): (0%); Muscle spasms: patients, number (head not printed (Grade 3/4)): 0; Myalgia: patients, % (head not printed (Grade 3/4)): (0%); Myalgia: patients, number (head not printed (Grade 3/4)): 0; Nausea: patients, % (head not printed (Grade 3/4)): (1%); Nausea: patients, number (head not printed (Grade 3/4)): 1; Pain in extremity: patients, % (head not printed (Grade 3/4)): (1%); Pain in extremity: patients, number (head not printed (Grade 3/4)): 1; Palmar-plantar erythrodysaesthesia syndrome: patients, % (head not printed (Grade 3/4)): (1%); Palmar-plantar erythrodysaesthesia syndrome: patients, number (head not printed (Grade 3/4)): 1; Pruritus: patients, % (head not printed (Grade 3/4)): (0%); Pruritus: patients, number (head not printed (Grade 3/4)): 0; Rash maculo-papular: patients, % (head not printed (Grade 3/4)): (0%); Rash maculo-papular: patients, number (head not printed (Grade 3/4)): 0; Rash: patients, % (head not printed (Grade 3/4)): (0%); Rash: patients, number (head not printed (Grade 3/4)): 0; Seborrhoeic keratosis: patients, % (head not printed (Grade 3/4)): (0%); Seborrhoeic keratosis: patients, number (head not printed (Grade 3/4)): 0; Skin papilloma: patients, % (head not printed (Grade 3/4)): (0%); Skin papilloma: patients, number (head not printed (Grade 3/4)): 0; Upper respiratory tract infection: patients, % (head not printed (Grade 3/4)): (0%); Upper respiratory tract infection: patients, number (head not printed (Grade 3/4)): 0; Urinary tract infection: patients, % (head not printed (Grade 3/4)): (2%); Urinary tract infection: patients, number (head not printed (Grade 3/4)): 4; Vision blurred: patients, % (head not printed (Grade 3/4)): (0%); Vision blurred: patients, number (head not printed (Grade 3/4)): 0; Vomiting: patients, % (head not printed (Grade 3/4)): (1%); Vomiting: patients, number (head not printed (Grade 3/4)): 2; Weight decreased: patients, % (head not printed (Grade 3/4)): (1%); Weight decreased: patients, number (head not printed (Grade 3/4)): 1
